From US20230041563A1, “N-(1,3,4-OXADIAZOL-2-YL)ARYLCARBOXAMIDES OR SALTS THEREOF, PREPARATION METHODS, HERBICIDAL COMPOSITIONS AND USES THEREOF” (priority 2018, published 2023)

Columns and labels:
Assay in all cases: Weeding effect in post-emergence stage (greenhouse pot spray)
Format in all cases: in vivo
[1] = test system: Digitaria sanguinalis
Text: (§1) The activity level criteria for plant damage (i.e., growth control rate) are as follows:
(§2) The above growth control rates are fresh weight control rates.
(§3) Experiment on weeding effect in post-emergence stage: monocotyledonous and dicotyledonous weed seeds (Descurainia sophia, Capsella bursa-pastoris, Abutilon theophrasti, Galium aparine, Stellaria media, Lithospermum arvense, rorippa indica, Alopecurus aequalis, Beckmannia syzigachne, Sclerochloa dura, Phleum paniculatum, Bromus japonicus, Aegilops tauschii, Phalaris arundinacea, Amaranthus retroflexus, Chenopodiaceae, Commelina communis, Sonchus arvensis, convolvulus arvensis, Cirsium setosum, Solanum nigrum, Acalypha australis, Digitaria sanguinalis, Echinochloa crusgalli, Setaria viridis, Setaria glauca, Leptochloa chinensis, Monochoria vaginalis, Sagittaria trifolia, Scirpus juncoides, Cyperus rotundus, Cyperus iria, Cyperus difformis, Fimbristylis, Portulaca oleracea, Xanthium sibiricum, Pharbitis nil) and major crop seeds (wheat, corn, rice, soybean, cotton, oilseed rape, millet, sorghum, potato, sesame, ricinus) were placed in plastic pots filled with soil, then covered with 0.5-2 cm of soil, allowed to grow in a good greenhouse environment. After 2 weeks of sowing, the test plants were treated in the 2 to 3 leaf stage. The tested compounds of the present invention were respectively dissolved in acetone, then added with Tween 80 and 1.5 liter/ha of emulsifiable concentrate of methyl oleate as synergist, diluted with a certain amount of water to obtain a solution with a certain concentration, and sprayed with a spray tower onto the plants. After the application, the plants were cultured for 3 weeks in the greenhouse, and then the experimental results of the weeding were counted. […]

[2] = test system: Setaria viridis
Text: as §1, §2, §3

[3] = test system: Echinochloa crusgalli
Text: as §1, §2, §3

Row | SMILES | Digitaria sanguinahs (activity level) ([1]; Table 3, dose 125 g a.i./ha) | Setaria viridis (activity level) ([2]; Table 3, dose 125 g a.i./ha) | Echinochloa crusgali (activity level) ([3]; Table 3, dose 125 g a.i./ha) | Digitaria sanguinahs (activity level) ([1]; Table 3, dose 500 g a.i./ha) | Setaria viridis (activity level) ([2]; Table 3, dose 500 g a.i./ha) | Echinochloa crusgali (activity level) ([3]; Table 3, dose 500 g a.i./ha) | further results
1 | Cc1nnc(NC(=O)c2ccc(C(F)(F)F)c([S@@+]([O-])CCCC(F)(F)F)c2F)o1 [1-411 (R-configuration)] | – | – | – | – | – | – | Digitaria sanguinahs (activity level) ([1]; Table 3, dose 250 g a.i./ha): 5 (Level 5: growth control rate is above 85%); Setaria viridis (activity level) ([2]; Table 3, dose 250 g a.i./ha): 5 (Level 5: growth control rate is above 85%); Echinochloa crusgali (activity level) ([3]; Table 3, dose 250 g a.i./ha): 5 (Level 5: growth control rate is above 85%)
2 | CC[S@+]([O-])c1c(C(F)(F)F)ccc(C(=O)Nc2nnco2)c1F [3-5 (R-configuration)] | – | – | – | – | – | – | Digitaria sanguinahs (activity level) ([1]; Table 3, dose 120 g a.i./ha): 5 (Level 5: growth control rate is above 85%); Setaria viridis (activity level) ([2]; Table 3, dose 120 g a.i./ha): 5 (Level 5: growth control rate is above 85%); Echinochloa crusgali (activity level) ([3]; Table 3, dose 120 g a.i./ha): 5 (Level 5: growth control rate is above 85%)
3 | COCC[S@+]([O-])c1c(C(F)(F)F)ccc(C(=O)Nc2nnco2)c1F [3-57 (R-configuration)] | 5 (Level 5: growth control rate is above 85%) | 5 (Level 5: growth control rate is above 85%) | 5 (Level 5: growth control rate is above 85%) | – | – | – | –
4 | Cc1nnc(NC(=O)c2ccc(C(F)(F)F)c([S@@+]([O-])CCC(F)(C(F)(F)F)C(F)(F)F)c2F)o1 [1-413 (R-configuration)] | – | – | – | 5 (Level 5: growth control rate is above 85%) | 5 (Level 5: growth control rate is above 85%) | 5 (Level 5: growth control rate is above 85%) | –
5 | Cc1nnc(NC(=O)c2ccc(C(F)(F)F)c([S@@+]([O-])CCOC(F)F)c2F)o1 [1-523 (R-configuration)] | – | – | – | 5 (Level 5: growth control rate is above 85%) | 5 (Level 5: growth control rate is above 85%) | 5 (Level 5: growth control rate is above 85%) | –
6 | CC(C)C[S@@+]([O-])c1c(C(F)(F)F)ccc(C(=O)Nc2nnco2)c1F [3-20 (R-configuration)] | 5 (Level 5: growth control rate is above 85%) | 5 (Level 5: growth control rate is above 85%) | 5 (Level 5: growth control rate is above 85%) | – | – | – | –
7 | CCCC[S@+]([O-])c1c(C(F)(F)F)ccc(C(=O)Nc2nnco2)c1F [3-14 (R-configuration)] | – | – | – | – | – | – | Digitaria sanguinahs (activity level) ([1]; Table 3, dose 60 g a.i./ha): 5 (Level 5: growth control rate is above 85%); Setaria viridis (activity level) ([2]; Table 3, dose 60 g a.i./ha): 5 (Level 5: growth control rate is above 85%); Echinochloa crusgali (activity level) ([3]; Table 3, dose 60 g a.i./ha): 5 (Level 5: growth control rate is above 85%)
8 | CC(C)=NOCC[S@@+]([O-])c1c(C(F)(F)F)ccc(C(=O)Nc2nnc(C)o2)c1F [1-525 (R-configuration)] | – | – | – | 5 (Level 5: growth control rate is above 85%) | 5 (Level 5: growth control rate is above 85%) | 5 (Level 5: growth control rate is above 85%) | –
9 | Cc1nnc(NC(=O)c2ccc(C(F)(F)F)c([S@@+]([O-])CCC#N)c2F)o1 [1-427 (R-configuration)] | – | – | – | 5 (Level 5: growth control rate is above 85%) | 5 (Level 5: growth control rate is above 85%) | 5 (Level 5: growth control rate is above 85%) | –
10 | CC(C)[S@+]([O-])c1c(C(F)(F)F)ccc(C(=O)Nc2nnco2)c1F [3-11 (R-configuration)] | 5 (Level 5: growth control rate is above 85%) | 5 (Level 5: growth control rate is above 85%) | 5 (Level 5: growth control rate is above 85%) | – | – | – | –
11 | Cc1nnc(NC(=O)c2ccc(C(F)(F)F)c([S@@+]([O-])CCC(F)F)c2F)o1 [1-405 (R-configuration)] | 5 (Level 5: growth control rate is above 85%) | 5 (Level 5: growth control rate is above 85%) | 5 (Level 5: growth control rate is above 85%) | – | – | – | –
12 | Cc1nnc(NC(=O)c2ccc(C(F)(F)F)c([S@+]([O-])CCC(F)(F)C(F)(F)F)c2F)o1 [1-412 (R-configuration)] | – | – | – | 5 (Level 5: growth control rate is above 85%) | 5 (Level 5: growth control rate is above 85%) | 5 (Level 5: growth control rate is above 85%) | –
13 | COCCC[S@@+]([O-])c1c(C(F)(F)F)ccc(C(=O)Nc2nnc(C)o2)c1F [1-448 (R-configuration)] | – | – | – | 5 (Level 5: growth control rate is above 85%) | 5 (Level 5: growth control rate is above 85%) | 5 (Level 5: growth control rate is above 85%) | –
14 | Cc1nnc(NC(=O)c2ccc(C(F)(F)F)c([S@@+]([O-])CCCC#N)c2F)o1 [1-428 (R-configuration)] | – | – | – | 5 (Level 5: growth control rate is above 85%) | 5 (Level 5: growth control rate is above 85%) | 5 (Level 5: growth control rate is above 85%) | –
15 | CC(=O)C[S@@+]([O-])c1c(C(F)(F)F)ccc(C(=O)Nc2nnc(C)o2)c1F [1-552 (R-configuration)] | 5 (Level 5: growth control rate is above 85%) | 5 (Level 5: growth control rate is above 85%) | 5 (Level 5: growth control rate is above 85%) | – | – | – | –
16 | COC(C)C[S@+]([O-])c1c(C(F)(F)F)ccc(C(=O)Nc2nnc(C)o2)c1F (stereo partly drawn) [1-447 (R-configuration)] | – | – | – | 5 (Level 5: growth control rate is above 85%) | 5 (Level 5: growth control rate is above 85%) | 5 (Level 5: growth control rate is above 85%) | –
17 | O=C(Nc1nnco1)c1ccc(C(F)(F)F)c([S@@+]([O-])CCC(F)(F)F)c1F [3-52 (R-configuration)] | 5 (Level 5: growth control rate is above 85%) | 5 (Level 5: growth control rate is above 85%) | 5 (Level 5: growth control rate is above 85%) | – | – | – | –
18 | Cc1nnc(NC(=O)c2ccc(C(F)(F)F)c([S@@+]([O-])CC(C)O)c2F)o1 (stereo partly drawn) [1-431 (R-configuration)] | – | – | – | 5 (Level 5: growth control rate is above 85%) | 5 (Level 5: growth control rate is above 85%) | 5 (Level 5: growth control rate is above 85%) | –
19 | CCOCC[S@+]([O-])c1c(C(F)(F)F)ccc(C(=O)Nc2nnc(C)o2)c1F [1-446 (R-configuration)] | – | – | – | 5 (Level 5: growth control rate is above 85%) | 5 (Level 5: growth control rate is above 85%) | 5 (Level 5: growth control rate is above 85%) | –
20 | CCC[S@+]([O-])c1c(C(F)(F)F)ccc(C(=O)Nc2nnc(CC)o2)c1F [2-8 (R-configuration)] | – | – | – | – | – | – | Digitaria sanguinahs (activity level) ([1]; Table 3, dose 250 g a.i./ha): 5 (Level 5: growth control rate is above 85%); Setaria viridis (activity level) ([2]; Table 3, dose 250 g a.i./ha): 5 (Level 5: growth control rate is above 85%); Echinochloa crusgali (activity level) ([3]; Table 3, dose 250 g a.i./ha): 5 (Level 5: growth control rate is above 85%)
21 | C=CCC[S@+]([O-])c1c(C(F)(F)F)ccc(C(=O)Nc2nnc(C)o2)c1F [1-397 (R-configuration)] | 5 (Level 5: growth control rate is above 85%) | 5 (Level 5: growth control rate is above 85%) | 5 (Level 5: growth control rate is above 85%) | – | – | – | –
22 | CC#CC[S@+]([O-])c1c(C(F)(F)F)ccc(C(=O)Nc2nnc(C)o2)c1F [1-402 (R-configuration)] | – | – | – | 5 (Level 5: growth control rate is above 85%) | 5 (Level 5: growth control rate is above 85%) | 5 (Level 5: growth control rate is above 85%) | –
23 | CCOC[S+]([O-])c1c(C(F)(F)F)ccc(C(=O)Nc2nnc(C)o2)c1F (stereo not drawn) [1-444 (R-configuration)] | – | – | – | 5 (Level 5: growth control rate is above 85%) | 5 (Level 5: growth control rate is above 85%) | 5 (Level 5: growth control rate is above 85%) | –
